# According to patent publication US6914045B2, “Glycopeptide antibiotics” (Wyeth Holdings Corporation, priority 2001, dated 2005):
# Experiments:
# Assay in all cases: in vitro antibacterial evaluation, MIC by broth dilution
# Format in all cases: cell-based
# Enterococcus sp. = settings: broth dilution, 18 hours at 35° C.
# Method in brief: (§1)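 Following National Committee for Clinical Laboratory Standards recommendations (M7-A2), susceptibility was measured by dilution in Muller-Hinton II […]. Bacteria were seeded at 5×10^5 CFU/mL against compound concentrations from 64 down to 0.06 μg/mL.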
# Escherichia coli = settings: 18 hours at 35° C.
# Method in brief: as §1
# Staphylococcus sp. = settings: broth dilution, 18 hours at 35° C.
# Method in brief: as §1
# Streptococcus sp. = settings: broth dilution, 18 hours at 35° C.
# Method in brief: as §1
structure (smiles),measurement,setting,value
"CC(c1ccccc1)C1NC(=O)CNC(=O)C(CO)NC(=O)C(C(O)C2CNC(=N)N2C2OC(CO)C(O)C(O)C2O)NC(=O)C(C(O)C2CNC(=N)N2)NC(=O)C(Cc2ccc(OC3OC(CO)C(OC4OC5COC(Cc6ccc(Br)cc6)OC5C(O)C4O)C(O)C3O)cc2)NC1=O (stereo not drawn) [Example 118, Cyclo[glycyl-β-methylphenylalanyl-O-[4-O-[4,6-O-(4-bromophenethylidene)hexopyranosyl]-hexopyranosyl]tyrosyl-3-(2-iminoimidazolidin-4-yl)seryl-3-(3-hexopyranosyl-2-iminoimidazolidin-4-yl)serylseryl]]",MIC Enterococcus avium (GC 4558),Enterococcus sp.; Enterococcus avium (GC 4558),1 to 2 µg/mL
same,MIC Enterococcus faecalis (ATCC 29212),Enterococcus sp.; Enterococcus faecalis (ATCC 29212),1 to 2 µg/mL
same,MIC Enterococcus faecalis (GC 2242),Enterococcus sp.; Enterococcus faecalis (GC 2242),<0.5 to 2 µg/mL
same,MIC Enterococcus faecalis (GC 2691),Enterococcus sp.; Enterococcus faecalis (GC 2691),1 to 2 µg/mL
same,MIC Enterococcus faecalis (GC 3059),Enterococcus sp.; Enterococcus faecalis (GC 3059),1 to 2 µg/mL
same,MIC Enterococcus faecalis (GC 4552),Enterococcus sp.; Enterococcus faecalis (GC 4552),1 to 2 µg/mL
same,MIC Enterococcus faecalis (GC 4553),Enterococcus sp.; Enterococcus faecalis (GC 4553),1 to 2 µg/mL
same,MIC Enterococcus faecalis (GC 4554),Enterococcus sp.; Enterococcus faecalis (GC 4554),1 to 2 µg/mL
same,MIC Enterococcus faecalis (GC 6189),Enterococcus sp.; Enterococcus faecalis (GC 6189),1 to 2 µg/mL
same,MIC Enterococcus faecium (GC 2243),Enterococcus sp.; Enterococcus faecium (GC 2243),1 µg/mL
same,MIC Enterococcus faecium (GC 4556),Enterococcus sp.; Enterococcus faecium (GC 4556),<0.5 to 1 µg/mL
same,MIC Enterococcus faecium (GC 4557),Enterococcus sp.; Enterococcus faecium (GC 4557),<0.5 to 2 µg/mL
same,MIC Enterococcus faecalis (ATCC 29212),Enterococcus sp.; strain ATCC 29212,1 to 2 µg/mL
same,MIC Enterococcus faecalis (GC 2242),Enterococcus sp.; strain GC 2242,<0.5 to 2 µg/mL
same,MIC Enterococcus faecium (GC 2243),Enterococcus sp.; strain GC 2243,1 µg/mL
same,MIC Enterococcus faecalis (GC 2691),Enterococcus sp.; strain GC 2691,1 to 2 µg/mL
same,MIC Enterococcus faecalis (GC 3059),Enterococcus sp.; strain GC 3059,1 to 2 µg/mL
same,MIC Enterococcus faecalis (GC 4552),Enterococcus sp.; strain GC 4552,1 to 2 µg/mL
same,MIC Enterococcus faecalis (GC 4553),Enterococcus sp.; strain GC 4553,1 to 2 µg/mL
same,MIC Enterococcus faecalis (GC 4554),Enterococcus sp.; strain GC 4554,1 to 2 µg/mL
same,MIC Enterococcus faecium (GC 4556),Enterococcus sp.; strain GC 4556,<0.5 to 1 µg/mL
same,MIC Enterococcus faecium (GC 4557),Enterococcus sp.; strain GC 4557,<0.5 to 2 µg/mL
same,MIC Enterococcus avium (GC 4558),Enterococcus sp.; strain GC 4558,1 to 2 µg/mL
same,MIC Enterococcus faecalis (GC 6189),Enterococcus sp.; strain GC 6189,1 to 2 µg/mL
same,MIC Escherichia coli (ATCC 25922),Escherichia coli; strain ATCC 25922,16 to 32 µg/mL
same,MIC Escherichia coli (GC 4559),Escherichia coli; strain GC 4559,16 µg/mL
same,MIC Escherichia coli (GC 4560),Escherichia coli; strain GC 4560,1 µg/mL
same,MIC Coagulase Negative Staphylococcus (GC 4547),Staphylococcus sp.,<0.5 to 1 µg/mL
same,MIC Coagulase Negative Staphylococcus (GC 4548),Staphylococcus sp.,0.25-0.25 μg/mL
same,MIC Coagulase Negative Staphylococcus (GC 4551),Staphylococcus sp.,<0.5 to 1 µg/mL
same,MIC Coagulase Negative Staphylococcus (GC 6257),Staphylococcus sp.,0.25-0.25 μg/mL
same,MIC Staphylococcus aureus (ATCC 29213),Staphylococcus sp.,<0.5 to 1 µg/mL
same,MIC Staphylococcus aureus (GC 1131),Staphylococcus sp.,<0.5 to 1 µg/mL
same,MIC Staphylococcus aureus (GC 3051),Staphylococcus sp.,<0.5 to 1 µg/mL
same,MIC Staphylococcus aureus (GC 3053),Staphylococcus sp.,1 µg/mL
same,MIC Staphylococcus aureus (GC 4541),Staphylococcus sp.,<0.5 to 1 µg/mL
same,MIC Staphylococcus aureus (GC 4542),Staphylococcus sp.,<0.5 to 1 µg/mL
same,MIC Staphylococcus aureus (GC 4544),Staphylococcus sp.,<0.5 to 1 µg/mL
same,MIC Staphylococcus aureus (GC 4545),Staphylococcus sp.,<0.5 to 1 µg/mL
same,MIC Staphylococcus aureus-SMITH (GC 4543),Staphylococcus sp.,<0.5 to 1 µg/mL
same,MIC Staphylococcus aureus (GC 1131),"Staphylococcus sp.; inoculum 5×10^5 CFU/mL, strain GC 1131",<0.5 to 1 µg/mL
same,MIC Staphylococcus aureus (ATCC 29213),Staphylococcus sp.; strain ATCC 29213,<0.5 to 1 µg/mL
same,MIC Staphylococcus aureus (GC 3051),Staphylococcus sp.; strain GC 3051,<0.5 to 1 µg/mL
same,MIC Staphylococcus aureus (GC 3053),Staphylococcus sp.; strain GC 3053,1 µg/mL
same,MIC Staphylococcus aureus (GC 4541),Staphylococcus sp.; strain GC 4541,<0.5 to 1 µg/mL
same,MIC Staphylococcus aureus (GC 4542),Staphylococcus sp.; strain GC 4542,<0.5 to 1 µg/mL
same,MIC Staphylococcus aureus (GC 4544),Staphylococcus sp.; strain GC 4544,<0.5 to 1 µg/mL
same,MIC Staphylococcus aureus (GC 4545),Staphylococcus sp.; strain GC 4545,<0.5 to 1 µg/mL
same,MIC Coagulase Negative Staphylococcus (GC 4547),Staphylococcus sp.; strain GC 4547,<0.5 to 1 µg/mL
same,MIC Coagulase Negative Staphylococcus (GC 4548),Staphylococcus sp.; strain GC 4548,0.25-0.25 μg/mL
same,MIC Coagulase Negative Staphylococcus (GC 4551),Staphylococcus sp.; strain GC 4551,<0.5 to 1 µg/mL
same,MIC Coagulase Negative Staphylococcus (GC 6257),Staphylococcus sp.; strain GC 6257,0.25-0.25 μg/mL
same,MIC Staphylococcus aureus-SMITH (GC 4543),Staphylococcus sp.; strain SMITH GC 4543,<0.5 to 1 µg/mL
same,MIC Streptococcus agalactiae (GC 4564),Streptococcus sp.; Streptococcus agalactiae (GC 4564),<0.06 µg/mL
same,MIC Streptococcus pneumoniae (ATCC 6301),Streptococcus sp.; Streptococcus pneumoniae (ATCC 6301),<0.06 µg/mL
same,MIC Streptococcus pneumoniae (GC 1894),Streptococcus sp.; Streptococcus pneumoniae (GC 1894),<0.06 µg/mL
same,MIC Streptococcus pneumoniae (GC 4565),Streptococcus sp.; Streptococcus pneumoniae (GC 4565),<0.06 µg/mL
same,MIC Streptococcus pyogenes (GC 4563),Streptococcus sp.; Streptococcus pyogenes (GC 4563),<0.06 µg/mL
same,MIC Streptococcus pneumoniae (ATCC 6301),Streptococcus sp.; strain ATCC 6301,<0.06 µg/mL
same,MIC Streptococcus pneumoniae (GC 1894),Streptococcus sp.; strain GC 1894,<0.06 µg/mL
same,MIC Streptococcus pyogenes (GC 4563),Streptococcus sp.; strain GC 4563,<0.06 µg/mL
same,MIC Streptococcus agalactiae (GC 4564),Streptococcus sp.; strain GC 4564,<0.06 µg/mL
same,MIC Streptococcus pneumoniae (GC 4565),Streptococcus sp.; strain GC 4565,<0.06 µg/mL
